Consider four compounds from patent US20150196533A1, “METHOD FOR CONCURRENT TREATMENT OF PAIN AND DEPRESSION” (The General Hospital Corporation, priority 2012, published 2015).

The structures appear in SMILES notation. “Also recorded” adds a separate entry of the source.

Format in all cases: in vivo, rat
For test [1], the system named is IDO1/TPH2. The test can be described thus: IDO1/TPH2 expression in the hippocampus of CFA rats (Example 11). Conditions: intraperitoneally once per day, day 1 to day 14 (1-MT 10 mg, fluoxetine 5 mg); tissue taken 7 days after discontinuation. The source says:
Rats were divided into five groups: 1) sham-operated rats treated with a vehicle (Sham), 2) CFA-induced hindpaw pain treated with vehicle (C-V). […] Each treatment was given intraperitoneally once per day from day 1 to day 14. Hippocampal tissue samples were taken after the last behavioral tests at 7 days after discontinuation of the corresponding drug treatment.

Test [2] deals with Wistar rats with CFA-induced arthritis. The test can be described thus: Nociceptive tests (von Frey, Hargreaves) in rats with CFA-induced hindpaw monoarthritis. Conditions: for nociceptive behavior (mechanical allodynia, ipsilateral hindpaw; FIG. 5A): intraperitoneal, 10 mg/day, twice daily for 14 consecutive days after CFA. As to the method:
Hindpaw monoarthritis was induced by the injection of CFA (50 μl) into a unilateral tibio-tarsal joint cavity under brief isoflurane anesthesis (Butler, S. H., et al, and Weil-Fugazza, J. 1992. A limited arthritic model for chronic pain studies in the rat. Pain 48:73-81). Animals in sham groups received the injection of 50 μl Incomplete Freund's Adjuvant.
(§1) Under brief isoflurane anesthesia, a guide cannula (26 gauge, Plasticsone) was implanted just above the hippocampus (AP: −3.6 mm; left: +2.0 mm from Bregma; depth: −4.0 mm from skin) (Paxinos, G., and Watson, C. 1998. The rat brain in stertaxic coordinates. New York: Academic Press). An injection needle (33 gauge, Plasticsone) was inserted through the guide cannula and drug solution or vehicle (0.5 μl) was slowly injected over 5 min using a Hamilton syringe. Locations of the cannula placement were confirmed at the time of tissue harvest (data not shown).
(§2) Animals were habituated to a test setting (30-min session) for three consecutive days. Thermal withdrawal threshold was assessed using the Hargreaves' apparatus and method (Hargreaves, K., et al., 1988. A new and sensitive method for measuring thermal nociception in cutaneous hyperalgesia. Pain 32:77-88). Mechanical withdrawal threshold was assessed using von Frey filaments (Tal, M., and Bennett, G. J. 1994. Extra-territorial pain in rats with a peripheral mononeuropathy: mechano-hyperalgesia and mechano-allodynia in the territory of an uninjured nerve. Pain 57:375-382).

Test [3] deals with IL-6. The test can be described thus: Plasma IL-6 level (ELISA) in rats with nociceptive and depressive behavior. Conditions: systemic treatment; rats with both nociceptive and depressive behavior; data not shown. As to the method:
Under pentobarbital anesthesia, whole blood was collected from the left ventricle of the heart and placed in a serum collection tube (BD Vacutainer). Blood clots were formed after 30-60 min at room temperature and the tube was centrifuged for 10 min at 12,000 rpm. ELISA Quantikine kit (R&D Systems) and IDO ELISA kit (TSZ ELISA) was used according to the manufacturer's instructions. Optical density of samples was read at wavelengths of 450 & 570 nm using a microplate reader (Synergy HT, Bio-TEK®). A standard curve, provided by the manufacturer, was generated for each set of samples assayed and the concentration of each sample was obtained according to the standard curve.

Test [4] has as its system Wistar rats with CFA-induced arthritis. The test can be described thus: Depressive behavior (forced swim test) in rats with CFA-induced hindpaw monoarthritis. Conditions: for depressive behavior (immobility time in FST; FIG. 6H): 100 mg/kg intraperitoneally once on day 14, same arthritic rats, P>0.05.
The test system of test [5] is IDO1. The test can be described thus: Intra-hippocampal microinjection in naive rats: hippocampal IDO1 mRNA (real-time PCR). Conditions: intra-hippocampal microinjection alone, naive rats; P>0.05. As to the method: as §1
Total RNA was isolated from hippocampal samples using TRIzol reagent (Invitrogen). Four μg of total RNA was used to synthesize the first strand cDNA using SuperScript III kit (Invitrogen). Four μl of cDNA was put into 20 μl vessel with 1 μl of 20× TaqMan Gene Expression Assay. Taqman Gene Expression Assays (Applied Biosystems) containing primers and a Taqman probe were used to quantify each gene of interest. The genes examined were IL-6 (Rn01410330 m1, M26744.1) and IDO1 (Rn00576778 m1, AF312699.1) for rats and IL-6 (Mm00446190 m1, X54542.1) and IDO1 (Mm00492586 m1, M69109.1) for mice. […] The RNA expression of GAPDH was measured as control.
(In general: In qPCR the cycle at which signal appears reflects the starting amount.)

Test [6] deals with naive rats. The test can be described thus: Intra-hippocampal microinjection in naive rats: nociceptive and depressive behavior. As for the experimental part:
as §1, §2
FST was performed according to the original method by Porsolt et al (Porsolt, R. D., Le, P. M., and Jalfre, M. 1977. Depression: a new animal model sensitive to antidepressant treatments. Nature 266:730-732). The total duration of immobility (non-swimming) within a 5-min session was recorded as immobility scores (in seconds) and compared among groups.

Test [7] has as its system IDO1. The test can be described thus: Hippocampal IDO1 expression (Western blot, real-time PCR) in rats with CFA-induced arthritis. Conditions: 100 mg/kg intraperitoneally once on day 14, same arthritic rats, P>0.05. A general note: In western blotting, separated proteins are transferred to a membrane and probed.
Experimental: Rats were sacrificed under pentobarbital anesthesia.
Total RNA was isolated from hippocampal samples using TRIzol reagent (Invitrogen). Four μg of total RNA was used to synthesize the first strand cDNA using SuperScript III kit (Invitrogen). Four μl of cDNA was put into 20 μl vessel with 1 μl of 20× TaqMan Gene Expression Assay. Taqman Gene Expression Assays (Applied Biosystems) containing primers and a Taqman probe were used to quantify each gene of interest. […] The reaction was performed in duplicate with the following conditions: denaturing at 95° C. for 30 s, annealing at 60° C. for 2 min, extension at 68° C. for 2 min for 40 cycles using a 7300 Real-Time PCR System (Applied Biosystems). The RNA expression of GAPDH was measured as control.
[8] abbreviates: 100 mg/kg intraperitoneally once on day 14, examined 1 hr after, arthritic rats, P<0.05 vs vehicle.

On to `CNCCC(Oc1ccc(C(F)(F)F)cc1)c1ccccc1` (stereo not shown) [SSRI, fluoxetine], for which the “IDO1/TPH2 ratio in the hippocampus” value in test [1] was “did not alter the IDO1/TPH2 ratio”.
Turning to `Cn1cc(C[C@H](N)C(=O)O)c2ccccc21` [1-MT, L-1-methyl-tryptophan], the “IDO up-regulation in the hippocampus” value in test [1] is “prevented the IDO up-regulation”. Also, the “nociceptive behavior (thermal hyperalgesia, ipsilateral hindpaw; FIG. 5C)” value in test [2] (intra-hippocampal microinjection, 5 μg in 0.5 μl, once daily x 7 d, contralateral to arthritic hindpaw, P<0.05) is reported as “attenuated thermal hyperalgesia”. Also, the “behaviors in sham control rats” value in test [2] (intra-hippocampal microinjection) was “without changing behaviors in sham control rats”; in test [2] (systemic (intraperitoneal) treatment alone), “did not alter behaviors in sham controls rats”. The “nociceptive behavior (mechanical allodynia, ipsilateral hindpaw; FIG. 5A)” value in test [2] (arthritic rats, P<0.05 vs vehicle) is “significantly attenuated”; in test [2] (arthritic rats, P<0.05 vs vehicle, listed as L-1-MT) it was “attenuated mechanical allodynia”. Also, the “elevation of the plasma IL-6 level” value in test [3] is “did not prevent elevation of the plasma IL-6 level”. Besides, the “depressive behavior (immobility time in forced swimming test; FIG. 5D)” value in test [4] (intra-hippocampal microinjection, 5 μg in 0.5 μl, once daily x 7 d, P<0.05) is listed as “attenuated; also recorded: reduced the immobility time in forced swimming test”. The “depressive behavior (immobility time in forced swimming test; FIG. 5B)” value in test [4] (intraperitoneal, 10 mg/day, twice daily for 14 consecutive days after CFA, arthritic rats, P<0.05 vs vehicle) is given as “significantly attenuated; also recorded: improved the immobility time in forced swimming test”.
`N#C/C(=C/c1ccc(O)c(O)c1)C(=O)NCc1ccccc1` [AG490]: in test [5], the “IDO1 mRNA expression” value is given as “had no effect”. Besides, the “IL-6 effects (mechanical allodynia, thermal hyperalgesia, depressive behavior, hippocampal IDO1 mRNA; FIG. 9E-H)” value in test [6] (5 μg once daily x 7 d co-administered with IL-6 into the hippocampus of naive rats, each P<0.05) is “prevented; also recorded: blocked”. Besides, the baseline behavioral response result in test [6] (intra-hippocampal microinjection alone, naive rats, P>0.05) is on record as “had no effect”.
Consider `CC(=O)Nc1ccc(O)cc1` [acetaminophen, N-acetyl-para-aminophen], for which, in test [2] (setting [8]), the “mechanical allodynia (ipsilateral; FIG. 6F)” value was “significantly reduced; also recorded: attenuated”. For the same compound, the “thermal hyperalgesia (FIG. 6G)” value in test [2] (setting [8]) is “significantly reduced; also recorded: attenuated”. Moreover, the “hippocampal IDO1 mRNA level (FIG. 6I)” value in test [7] is recorded as “nor did it alter the IDO1 mRNA level”; in test [7] (listed as APAP), “not reversed”. Besides, the “depressive behavior (immobility time in FST; FIG. 6H)” value in test [4] was “did not acutely reverse depressive behavior”; in test [4] (listed as APAP), “did not change the immobility time in FST”.
